Common to all, as to assay type: functional
Assay [1] concerns the target Voltage-dependent T-type calcium channel subunit alpha-1H (Homo sapiens, UniProt O95180). In words: Cav3.2 T-type channel blockers, cell-based, SynthLib3 library, HEK293 Cav3.2, fluorescence (AID 493041).
Assay [2] deals with T1, Heat shock factor protein 1 (Mus musculus, UniProt P38532).
T1 sequence (P38532 whole entry): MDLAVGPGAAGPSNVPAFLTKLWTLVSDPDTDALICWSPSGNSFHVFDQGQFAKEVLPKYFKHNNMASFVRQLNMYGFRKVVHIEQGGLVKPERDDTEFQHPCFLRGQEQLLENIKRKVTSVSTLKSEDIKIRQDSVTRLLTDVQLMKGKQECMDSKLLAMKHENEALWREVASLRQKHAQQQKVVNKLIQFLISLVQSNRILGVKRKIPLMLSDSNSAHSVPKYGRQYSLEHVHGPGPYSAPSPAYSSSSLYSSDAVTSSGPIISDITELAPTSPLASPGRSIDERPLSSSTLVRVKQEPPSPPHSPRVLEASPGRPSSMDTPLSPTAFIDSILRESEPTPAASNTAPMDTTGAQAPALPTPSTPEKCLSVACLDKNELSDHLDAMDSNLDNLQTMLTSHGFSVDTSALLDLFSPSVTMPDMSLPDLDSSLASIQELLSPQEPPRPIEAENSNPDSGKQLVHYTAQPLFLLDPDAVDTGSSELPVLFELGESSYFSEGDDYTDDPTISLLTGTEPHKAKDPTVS
Briefly: inhibition of MG132-induced HSE-luciferase signal, confirmation, cell-based, NIH3T3, luminescence, dose retest (AID 2382).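 Note: NIH3T3 fibroblasts with HSF1-driven luciferase reporter stressed by proteasome inhibitor MG132; luminescence from HSF1-driven luciferase expression after 8 hours of MG132 stress.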

In assay [3] the target is Intestinal-type alkaline phosphatase (Mus musculus, UniProt P24822). In words: PubChem AID 488785.
Assay [4] concerns the target T2, Alkaline phosphatase, tissue-nonspecific isozyme (Homo sapiens, UniProt P05186).
T2 sequence (P05186 whole entry): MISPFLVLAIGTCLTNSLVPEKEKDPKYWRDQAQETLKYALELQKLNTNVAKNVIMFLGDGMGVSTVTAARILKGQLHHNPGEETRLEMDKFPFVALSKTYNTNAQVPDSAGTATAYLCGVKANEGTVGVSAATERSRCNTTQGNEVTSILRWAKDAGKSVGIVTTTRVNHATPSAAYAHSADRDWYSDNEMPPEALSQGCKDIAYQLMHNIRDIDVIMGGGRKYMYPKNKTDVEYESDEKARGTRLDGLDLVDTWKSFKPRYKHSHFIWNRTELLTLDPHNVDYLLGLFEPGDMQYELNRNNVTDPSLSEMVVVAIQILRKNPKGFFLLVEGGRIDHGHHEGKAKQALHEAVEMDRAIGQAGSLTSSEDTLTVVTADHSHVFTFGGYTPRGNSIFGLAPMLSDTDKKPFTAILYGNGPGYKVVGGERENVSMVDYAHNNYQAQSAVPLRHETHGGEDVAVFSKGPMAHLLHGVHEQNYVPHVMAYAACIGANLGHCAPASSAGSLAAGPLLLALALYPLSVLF
In words: TNAP enzyme inhibition by screening hits, dose response, selectivity assay for mouse IAP inhibitor project, biochemical, human TNAP, uHTS hits (AID 488906).

Assay [5] concerns the target Intestinal-type alkaline phosphatase (Homo sapiens, UniProt P09923). In words: inhibition of human intestinal alkaline phosphatase – biochemical, dose response (AID 488876).

SMILES strings stand for the structures. Calls of active or inactive are those of the source.

Voltage-dependent T-type calcium channel subunit alpha-1H, sequence (O95180 whole entry): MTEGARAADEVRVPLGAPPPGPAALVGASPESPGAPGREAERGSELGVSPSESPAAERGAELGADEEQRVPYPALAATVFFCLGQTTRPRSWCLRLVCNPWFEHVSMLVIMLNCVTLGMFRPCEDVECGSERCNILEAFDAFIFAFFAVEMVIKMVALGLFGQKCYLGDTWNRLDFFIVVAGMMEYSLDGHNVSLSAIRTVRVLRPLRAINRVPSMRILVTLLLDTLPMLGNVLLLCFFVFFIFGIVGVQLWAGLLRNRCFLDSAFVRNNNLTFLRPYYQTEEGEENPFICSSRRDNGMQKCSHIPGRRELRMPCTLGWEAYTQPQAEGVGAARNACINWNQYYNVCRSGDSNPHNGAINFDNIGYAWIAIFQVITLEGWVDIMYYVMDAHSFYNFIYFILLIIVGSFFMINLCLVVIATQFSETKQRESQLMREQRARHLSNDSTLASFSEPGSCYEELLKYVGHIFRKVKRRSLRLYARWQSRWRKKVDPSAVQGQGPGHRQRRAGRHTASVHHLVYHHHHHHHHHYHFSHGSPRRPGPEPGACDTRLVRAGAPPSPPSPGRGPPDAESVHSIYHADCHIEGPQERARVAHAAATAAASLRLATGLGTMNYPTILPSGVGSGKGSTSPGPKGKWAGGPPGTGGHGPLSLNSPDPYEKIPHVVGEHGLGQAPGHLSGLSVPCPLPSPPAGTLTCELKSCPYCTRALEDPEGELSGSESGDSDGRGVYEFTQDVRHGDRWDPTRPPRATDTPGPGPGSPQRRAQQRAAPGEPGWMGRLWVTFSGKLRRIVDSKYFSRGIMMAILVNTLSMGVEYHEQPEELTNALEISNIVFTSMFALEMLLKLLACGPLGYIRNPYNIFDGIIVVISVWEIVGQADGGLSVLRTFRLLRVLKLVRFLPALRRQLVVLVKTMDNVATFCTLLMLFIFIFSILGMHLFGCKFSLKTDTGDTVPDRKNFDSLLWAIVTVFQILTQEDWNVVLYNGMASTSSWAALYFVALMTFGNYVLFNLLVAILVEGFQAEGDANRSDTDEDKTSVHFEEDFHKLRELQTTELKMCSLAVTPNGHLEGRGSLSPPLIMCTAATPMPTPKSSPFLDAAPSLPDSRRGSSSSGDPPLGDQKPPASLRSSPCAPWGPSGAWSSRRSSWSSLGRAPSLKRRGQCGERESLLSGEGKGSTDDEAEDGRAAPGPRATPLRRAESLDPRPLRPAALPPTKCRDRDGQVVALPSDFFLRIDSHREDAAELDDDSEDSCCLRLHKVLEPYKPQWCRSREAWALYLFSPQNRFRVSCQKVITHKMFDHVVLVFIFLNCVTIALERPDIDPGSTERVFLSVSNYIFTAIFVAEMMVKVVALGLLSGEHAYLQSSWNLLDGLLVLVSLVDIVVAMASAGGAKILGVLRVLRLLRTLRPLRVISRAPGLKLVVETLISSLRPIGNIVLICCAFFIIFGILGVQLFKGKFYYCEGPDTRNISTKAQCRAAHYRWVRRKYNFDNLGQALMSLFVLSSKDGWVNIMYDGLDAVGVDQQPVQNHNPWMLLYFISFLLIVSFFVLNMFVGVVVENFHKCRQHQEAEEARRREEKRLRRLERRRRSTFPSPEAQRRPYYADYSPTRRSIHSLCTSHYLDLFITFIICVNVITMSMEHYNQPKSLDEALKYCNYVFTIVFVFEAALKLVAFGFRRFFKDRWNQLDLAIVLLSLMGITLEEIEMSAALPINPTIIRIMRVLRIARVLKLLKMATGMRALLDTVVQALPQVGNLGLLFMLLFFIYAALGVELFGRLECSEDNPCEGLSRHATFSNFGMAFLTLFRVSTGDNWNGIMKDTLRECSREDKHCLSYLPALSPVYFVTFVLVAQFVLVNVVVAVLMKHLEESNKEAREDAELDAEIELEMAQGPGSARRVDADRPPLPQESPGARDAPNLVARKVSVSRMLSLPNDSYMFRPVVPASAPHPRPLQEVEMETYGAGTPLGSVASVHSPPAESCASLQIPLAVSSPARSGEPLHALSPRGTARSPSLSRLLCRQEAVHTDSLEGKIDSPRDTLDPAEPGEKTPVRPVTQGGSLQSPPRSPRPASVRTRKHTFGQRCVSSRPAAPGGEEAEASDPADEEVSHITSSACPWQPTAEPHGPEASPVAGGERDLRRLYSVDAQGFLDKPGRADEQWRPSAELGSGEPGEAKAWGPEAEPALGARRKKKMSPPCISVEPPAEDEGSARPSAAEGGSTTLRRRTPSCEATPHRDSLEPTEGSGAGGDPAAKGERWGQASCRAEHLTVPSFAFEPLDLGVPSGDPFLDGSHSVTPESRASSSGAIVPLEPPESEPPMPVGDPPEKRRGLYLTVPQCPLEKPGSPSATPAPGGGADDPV
Intestinal-type alkaline phosphatase (Homo sapiens, UniProt P09923), sequence (P09923 whole entry): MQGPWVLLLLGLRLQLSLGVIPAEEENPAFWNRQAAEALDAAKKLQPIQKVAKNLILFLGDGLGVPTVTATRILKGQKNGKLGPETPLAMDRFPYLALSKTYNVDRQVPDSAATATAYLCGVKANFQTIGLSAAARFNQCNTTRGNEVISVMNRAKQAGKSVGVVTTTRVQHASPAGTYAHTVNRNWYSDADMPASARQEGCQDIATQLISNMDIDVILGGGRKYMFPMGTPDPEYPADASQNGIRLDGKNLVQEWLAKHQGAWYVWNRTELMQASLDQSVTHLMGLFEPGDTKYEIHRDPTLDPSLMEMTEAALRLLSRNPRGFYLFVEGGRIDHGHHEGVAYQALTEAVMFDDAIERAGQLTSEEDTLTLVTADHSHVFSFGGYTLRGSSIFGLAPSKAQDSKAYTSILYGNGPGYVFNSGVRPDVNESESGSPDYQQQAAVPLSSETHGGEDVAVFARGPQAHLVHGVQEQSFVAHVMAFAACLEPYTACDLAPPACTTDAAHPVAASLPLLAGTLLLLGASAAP
Intestinal-type alkaline phosphatase (Mus musculus, UniProt P24822), sequence (P24822 whole entry): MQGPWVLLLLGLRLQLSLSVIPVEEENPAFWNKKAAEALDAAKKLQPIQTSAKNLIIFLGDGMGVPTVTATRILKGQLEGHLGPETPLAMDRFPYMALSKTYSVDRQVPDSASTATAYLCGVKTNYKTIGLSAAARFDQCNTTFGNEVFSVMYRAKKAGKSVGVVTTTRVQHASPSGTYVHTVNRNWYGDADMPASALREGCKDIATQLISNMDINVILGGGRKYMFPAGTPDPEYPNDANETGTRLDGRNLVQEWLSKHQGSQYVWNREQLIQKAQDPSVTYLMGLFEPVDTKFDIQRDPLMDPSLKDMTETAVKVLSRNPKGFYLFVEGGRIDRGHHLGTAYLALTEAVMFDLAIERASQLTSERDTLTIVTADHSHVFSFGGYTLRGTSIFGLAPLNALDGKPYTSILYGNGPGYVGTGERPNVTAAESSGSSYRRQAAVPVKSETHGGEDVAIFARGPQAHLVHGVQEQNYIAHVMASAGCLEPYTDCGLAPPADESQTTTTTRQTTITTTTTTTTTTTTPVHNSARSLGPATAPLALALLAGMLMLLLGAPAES

Consider `CC(C)(C)CCN1C[C@@H]2C(CNC(=O)c3cc(Cl)cc(Cl)c3)[C@@H]2C1` (stereo not given in full), for which the EC50 in assay [1] is 0.17 µM (active).
Consider `CCn1cc(CN2CCC(C(=O)Nc3cccc(-c4cccc(Cl)c4)c3)CC2)c(C)n1`, for which the concentration giving a half-maximal response (EC50) in assay [2] is given as > 195 µM (not active). The results for the IC50 in assay [3], in assay [4] and in assay [5] were 12.8 µM (active), > 100 µM (inactive) and > 100 µM (inactive), respectively.

By EC50 is commonly meant the midpoint of the concentration-response curve. The IC50 is the concentration that gives 50% inhibition.

The values above are taken from ChEMBL document CHEMBL1201862, “PubChem BioAssay data set” (2004).
